# Test results: patent US11622965B2, “Methods for treating lymphoid malignancies” (ZHEJIANG DTRM BIOPHARMA CO. LTD., priority 2017, dated 2023)
# Several values for one entry are separate records, joined by “and”; a condition that tells them apart may be missing. Equal entries are not always repeated. Entries after “also recorded” stand apart in the source; their conditions may differ.
# Key:
# [1] = target: FGFR1 (Homo sapiens, UniProt P11362); assay: 46 kinase panel; format: biochemical
# Text: (§1) Both patents are incorporated by reference herein in their entirety.
# [2] = China Phase I trial of Compound A monotherapy: safety; format: in vivo, human
# Experimental: (§2) The pharmacokinetics of Compound A was also evaluated.
# (§3) Patients who met the following inclusion criteria were enrolled in the trials in China: i) age≥18 years, no gender limits, and provide the informed consent form; ii) B-cell lymphoma classification is based on WHO classified definition, including CLL, small lymphocytic lymphoma (SLL); CLL with 17p-; MCL; WM; DLBCL, etc.; iii) measurable lesion: NHL requires at least one≥2 cm two-dimensional lesion diameter, CLL≥5000 leukemia cells/mm^3, WM IgM≥1000 mg/dL, bone marrow lymph plasma-like cells infiltration, histopathologically diagnosed as DLBCL; iv) patients failed in lymphoma treatment at least once and have no standard therapeutic options; DLBCL patients who are not suitable for or reject autologous stem cell transplantation; and v) ECOG (Eastern Cooperative Oncology Group) performance status 0˜1. Meanwhile, patients who met any one of the following criteria were excluded: i) disease with changes of pathological tissue types (including large cell transformation); ii) patients received other BTK inhibitor therapy (China only); and iii) patients with HIV infection, or HBs-Ag or HBc-Ab positive.
# (§4) No intrapatient dose escalation of Compound A was permitted.
# [3] = U.S. Phase Ia trial of Compound A monotherapy: pharmacokinetics; format: in vivo; settings: human, plasma, oral, Compound A Plasma Level
# Experimental: (§5) Studies on the 200 mg and 300 mg cohorts were conducted in a standard 3+3 design.
# (§6) Drug-related adverse events (AEs), including DLT, non-hematologic AEs and hematologic AEs were recorded. […] The PK indexes of single dose administration included AUClast, AUCO-∞, Cmax, tmax, t1/2, CL/F and Vd/F. The PK indexes of steady state under continuous administration included AUCss, Cmax,ss and tmax,ss.
# [4] = system: relapsed/refractory CLL and B-cell lymphomas; assay: China and U.S. first-in-human monotherapy trials, overall conclusions
# Text: The primary endpoint of the trials was safety, while the secondary endpoints of the trials were anti-tumor activity and pharmacokinetic parameters. Patients enrolled in the trials met the following criteria: relapsed/refractory CLL and B-cell lymphoma with no available effective therapies, ≥18 years of age, and an Eastern Cooperative Oncology Group (ECOG) score≤1. […] The 3+3 dose-escalation method was used.
# Relapsed/refractory B-cell lymphoma patients who met the aforementioned enrollment criteria were enrolled without randomization. […] The patients were required to stay in the hospital for 24 hours after the first dosing. […] The first 28 days of treatment was considered DLT period.
# as §5
# (§7) The response rate, including the partial response and complete response rate, was defined according to the Revised International Working Group Criteria for non-Hodgkin's lymphoma (Cheson et al., J Clin Oncol 25:579-86 (2007)). Drug-related adverse events (AEs), including DLT, non-hematologic AEs and hematologic AEs were recorded. […] The PK indexes of single dose administration included AUClast, AUCO-∞, Cmax, tmax, t1/2, CL/F and Vd/F. The PK indexes of steady state under continuous administration included AUCss, Cmax,ss and tmax,ss.
# [5] = toxicokinetics in beagle dogs; format: in vivo
# Text: as §1
# [6] = system: relapsed/refractory B-cell lymphomas; assay: China Phase I trial of Compound A monotherapy: efficacy; format: in vivo, human
# Experimental: as §2, §3, §4
# [7] = system: 104 proteins (e.g., transporters, cell receptors, ion channels, and enzymes); assay: off-target screenings against 104 proteins
# Text: as §1
# [8] = U.S. Phase Ia trial of Compound A monotherapy: safety
# Experimental: as §5, §6
# [9] = system: relapsed/refractory CLL, Hodgkin lymphoma and B-cell NHL including DLBCL; assay: U.S. Phase Ia trial of Compound A monotherapy: efficacy; format: in vivo, human; set-up: key to response: PD: disease progression; settings: for time on continued monotherapy treatment: treatment continuing
# Experimental: Eligibility criteria for the U.S. study were similar to the China study, but histological subtypes included patients with relapsed/refractory CLL, Hodgkin lymphoma and B-cell NHL including DLBCL. Patients who had prior exposure to BTK inhibiting agents were permitted in the trial.
# as §5, §7
# [10] = China Phase I trial of Compound A monotherapy: pharmacokinetics; format: in vivo, human
# Experimental: as §2, §3, §4
# [11] = 13 patients, 50-400 mg daily, 28 day dosing schedule
# [12] = five patients, 21 day dosing schedule
# FGFR1, sequence (P11362 22-822, species assumed): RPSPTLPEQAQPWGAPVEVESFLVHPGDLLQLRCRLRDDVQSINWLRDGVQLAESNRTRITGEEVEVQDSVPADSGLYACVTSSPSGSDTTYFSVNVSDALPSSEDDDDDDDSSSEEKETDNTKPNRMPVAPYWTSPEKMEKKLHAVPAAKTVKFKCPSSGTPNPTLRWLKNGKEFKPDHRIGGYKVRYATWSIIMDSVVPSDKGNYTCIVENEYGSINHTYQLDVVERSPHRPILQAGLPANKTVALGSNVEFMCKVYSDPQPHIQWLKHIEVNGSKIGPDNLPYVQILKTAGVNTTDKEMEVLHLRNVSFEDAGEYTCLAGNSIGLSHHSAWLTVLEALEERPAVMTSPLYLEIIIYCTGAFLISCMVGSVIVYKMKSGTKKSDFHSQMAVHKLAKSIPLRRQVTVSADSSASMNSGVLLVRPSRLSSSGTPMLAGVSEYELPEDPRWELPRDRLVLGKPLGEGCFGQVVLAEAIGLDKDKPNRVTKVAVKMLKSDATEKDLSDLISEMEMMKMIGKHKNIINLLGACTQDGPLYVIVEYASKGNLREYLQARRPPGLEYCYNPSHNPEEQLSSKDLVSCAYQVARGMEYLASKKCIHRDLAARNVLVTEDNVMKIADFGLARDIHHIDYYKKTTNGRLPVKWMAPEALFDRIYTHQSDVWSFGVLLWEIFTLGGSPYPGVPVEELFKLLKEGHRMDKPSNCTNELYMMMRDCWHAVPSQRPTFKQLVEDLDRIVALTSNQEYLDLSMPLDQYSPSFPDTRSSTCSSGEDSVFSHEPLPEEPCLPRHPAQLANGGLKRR
compound,measurement,setting,value
"C=CC(=O)N1CC[C@@H](n2nc(-c3ccc(Oc4c(F)c(F)cc(F)c4F)cc3F)c3c(N)ncnc32)C1 [Compound A, 1-((R)-3-(4-amino-3-(2-fluoro-4-(2,3,5,6-tetrafluorophenoxy)phenyl)-1H-pyrazolo[3,4-d]pyrimidin-1-yl)pyrrolidin-1-yl)prop-2-en-1-one]",inhibition of FGFR1,[1],partial inhibition
same,"Grade 2, 4 or 5 hematologic events",[2],"No Grade 2, 4 or 5 hematologic events occurred"
same,"Grade 2, 4 or 5 non-hematologic events",[2],"No Grade 2, 4 or 5 non-hematologic events occurred"
same,"anemia, patients",[2]; [11],23.1%
same,"leucopenia, patients",[2]; [11],23.1%
same,"neutropenia, patients",[2]; [11],23.1%
same,dose-limiting toxicity,[2]; 50-400 mg daily,No dose-limiting toxicity occurred
same,grade of the majority of drug-related AEs,[2]; 28 day dosing schedule,grade 1
same,"Grade 1 alanine aminotransferase (ALT) elevation, patients",[2]; one patient,7.7%
same,"Grade 1 neutropenia, patients",[2]; one patient,7.7%
same,"Grade 3 pneumonia, patients",[2]; one patient,7.7%
same,"Grade 3 neutropenia, patients",[2]; two patients,15.4%
same,concentration at 0 h,"[3]; 50 mg, Day 1, 50 mg",0 µg/mL
same,concentration at 0.5 h,"[3]; 50 mg, Day 1, 50 mg",0.00284 µg/mL
same,concentration at 1 h,"[3]; 50 mg, Day 1, 50 mg",0.0269 µg/mL
same,concentration at 2 h,"[3]; 50 mg, Day 1, 50 mg",0.0634 µg/mL
same,concentration at 4 h,"[3]; 50 mg, Day 1, 50 mg",0.0153 µg/mL
same,concentration at 6 h,"[3]; 50 mg, Day 1, 50 mg",0.00644 µg/mL
same,concentration at 24 h,"[3]; 50 mg, Day 1, 50 mg",0 µg/mL
same,concentration at 0 h,"[3]; 100 mg, Day 1, 100 mg",0.00904 µg/mL
same,concentration at 0.5 h,"[3]; 100 mg, Day 1, 100 mg",0.0449 µg/mL
same,concentration at 1 h,"[3]; 100 mg, Day 1, 100 mg",0.0533 µg/mL
same,concentration at 2 h,"[3]; 100 mg, Day 1, 100 mg",0.0213 µg/mL
same,concentration at 4 h,"[3]; 100 mg, Day 1, 100 mg",0.0133 µg/mL
same,concentration at 6 h,"[3]; 100 mg, Day 1, 100 mg",0.0133 µg/mL
same,concentration at 24 h,"[3]; 100 mg, Day 1, 100 mg",0.00306 µg/mL
same,concentration at 0 h,"[3]; 200 mg, Day 1, 200 mg",0 µg/mL
same,concentration at 0.5 h,"[3]; 200 mg, Day 1, 200 mg",0 µg/mL
same,cycles of monotherapy tolerated,[4]; China and U.S. trials,up to 23 cycles
same,maximum tolerated dose,"[4]; Compound A monotherapy, China and U.S. trials",had not been reached
same,exposures to Compound A,[4]; all patients at all of the dose levels,adequate exposures
same,"efficacy in WM, MZL, and SLL/CLL patients",[4]; orally 50-400 mg once daily,preliminary efficacy was observed; also recorded: Efficacy of the Compound has also been observed
same,safety and tolerability,"[4]; patients with relapsed/refractory CLL and B-cell lymphomas, China and U.S. trials",safe and well tolerated
same,toxicokinetics properties,[5],Improved toxicokinetics properties
same,response,[6]; FL patients (N=2),"1PR, 1SD"
same,progressive disease after treatment,"[6]; FL patients, first cycle",three FL patients experienced progressive disease
same,response,[6]; MZL patients (N=2),"1CR, 1SD"
same,response,[6]; WM patients (N=2),2PR
same,off-target inhibitory activities,[7],no off-target inhibitory activities
same,discontinuation due to AEs and deaths,[8]; five patients,No patient discontinued study treatment due to AEs and no patient died on-study or within the 30-day follow-up period
same,hematologic single patient events,[8]; five patients,Grade 3 thrombocytopenia and Grade 3 neutropenia
same,non-hematologic single patient events,[8]; five patients,"Grade 3 lung infection, bronchitis, myalgia, nausea, fatigue and purpura (all Grade 1)"
same,"anemia, patients","[8]; five patients, 50-200 mg daily, 21 day dosing schedule",60%
same,"arthralgia, patients",[8]; [12],40%
same,"contusion, patients",[8]; [12],40%
same,grade of adverse events,[8]; [12],mostly Grade 1 and 2
same,"upper respiratory infection, patients",[8]; [12],40%
same,tolerability,"[8]; three additional patients, 300 mg",well tolerated
same,response,[9]; B-cell lymphoma patient,1SD
same,time on monotherapy until off study for disease progression,"[9]; B-cell lymphoma, 50 mg",five months
same,response,[9]; CLL patients (N=2),"1PR, 1SD"
same,time on continued monotherapy treatment,"[9]; CLL, 100 mg",13 months
same,time on monotherapy until off study for disease progression,"[9]; CLL, 200 mg",8 months
same,response,[9]; DLBCL patient,PD
same,time on monotherapy until off study for disease progression,"[9]; DLBCL, 200 mg",2 months
same,response,[9]; MZL patient,1PR
same,time on continued monotherapy treatment,[9]; MZL,11 months
same,Compound A Plasma Levels,"[10]; Day 1, 100 mg, 2 h",107 ng/mL and 150 ng/mL
same,Compound A Plasma Levels,"[10]; Day 1, 100 mg, 6 h",22.8 ng/mL and 29.4 ng/mL
same,Compound A Plasma Levels,"[10]; Day 1, 400 mg, 4 h",243 ng/mL and 184 ng/mL
same,Compound A Plasma Levels,"[10]; Day 1, 400 mg, 6 h",107 ng/mL and 130 ng/mL
same,Compound A Plasma Levels,"[10]; Day 8, 100 mg, 2 h",135 ng/mL and 83.0 ng/mL
same,Compound A Plasma Levels,"[10]; Day 8, 100 mg, 24 h",1.73 ng/mL and 1.27 ng/mL
same,Compound A Plasma Levels,"[10]; Day 8, 200 mg, 0 h",5.13 ng/mL and 3.53 ng/mL
same,Compound A Plasma Levels,"[10]; Day 8, 200 mg, 1 h",239 ng/mL
same,Compound A Plasma Levels,"[10]; Day 8, 200 mg, 2 h",273 ng/mL and 295 ng/mL
same,Compound A Plasma Levels,"[10]; Day 8, 400 mg, 4 h",214 ng/mL and 217 ng/mL
same,concentration at 0 h,"[10]; human, plasma, oral, 50 mg, Compound A Plasma Levels, Day 1, 50 mg, 0 h",0 µg/mL
same,concentration at 24 h,"[10]; human, plasma, oral, 50 mg, Compound A Plasma Levels, Day 1, 50 mg, 24 h",0 µg/mL
same,concentration at 24 h,"[10]; human, plasma, oral, 50 mg, Compound A Plasma Levels, Day 8, 50 mg, 24 h",0 µg/mL
same,concentration at 0 h,"[10]; human, plasma, oral, 100 mg, Compound A Plasma Levels, Day 1, 100 mg, 0 h",0 µg/mL
same,concentration at 2 h,"[10]; human, plasma, oral, 100 mg, Compound A Plasma Levels, Day 1, 100 mg, 2 h",0.192 µg/mL
same,concentration at 6 h,"[10]; human, plasma, oral, 100 mg, Compound A Plasma Levels, Day 1, 100 mg, 6 h",0.0291 µg/mL
same,concentration at 2 h,"[10]; human, plasma, oral, 100 mg, Compound A Plasma Levels, Day 8, 100 mg, 2 h",0.166 µg/mL
same,concentration at 24 h,"[10]; human, plasma, oral, 100 mg, Compound A Plasma Levels, Day 8, 100 mg, 24 h",0.00134 µg/mL
same,concentration at 0 h,"[10]; human, plasma, oral, 200 mg, Compound A Plasma Levels, Day 1, 200 mg, 0 h",0 µg/mL
same,concentration at 0 h,"[10]; human, plasma, oral, 200 mg, Compound A Plasma Levels, Day 8, 200 mg, 0 h",0.00369 µg/mL
same,concentration at 1 h,"[10]; human, plasma, oral, 200 mg, Compound A Plasma Levels, Day 8, 200 mg, 1 h",0.369 µg/mL
same,concentration at 2 h,"[10]; human, plasma, oral, 200 mg, Compound A Plasma Levels, Day 8, 200 mg, 2 h",0.537 µg/mL
same,concentration at 0 h,"[10]; human, plasma, oral, 400 mg, Compound A Plasma Levels, Day 1, 400 mg, 0 h",0 µg/mL
same,concentration at 4 h,"[10]; human, plasma, oral, 400 mg, Compound A Plasma Levels, Day 1, 400 mg, 4 h",0.134 µg/mL
same,concentration at 6 h,"[10]; human, plasma, oral, 400 mg, Compound A Plasma Levels, Day 1, 400 mg, 6 h",0.0859 µg/mL
same,concentration at 4 h,"[10]; human, plasma, oral, 400 mg, Compound A Plasma Levels, Day 8, 400 mg, 4 h",0.159 µg/mL
